Source: ChEMBL document CHEMBL1201862, “PubChem BioAssay data set” (2004)
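Compound exposure: 48 hours, 5 concentrations, 96-well plates. The concentration for 50% growth inhibition is given as GI50.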 Calls of active or inactive are those of the source. No stated cut-off is given here; in the data, active = GI50 up to about 1.1 µM and inactive = higher.

What was measured:
Assay in all cases: NCI tumour cell line growth inhibition, 48 h
[1] = system: A498
[2] = system: ACHN
[3] = system: CAKI-1
[4] = system: HCC 2998
[5] = system: HL-60
[6] = system: IGROV-1
[7] = system: K562
[8] = system: OVCAR-3
[9] = system: OVCAR-5
[10] = system: OVCAR-8
[11] = system: SF-539
[12] = system: SK-MEL-28
[13] = system: SK-OV-3
[14] = system: SN12C
[15] = system: SNB-75
[16] = system: SW-620
[17] = system: RXF 393
[18] = system: KM12

Row | SMILES | GI50 [1] | GI50 [2] | GI50 [3] | GI50 [4] | GI50 [5] | GI50 [6] | GI50 [7] | GI50 [8] | GI50 [9] | GI50 [10] | GI50 [11] | GI50 [12] | GI50 [13] | GI50 [14] | GI50 [15] | GI50 [16] | GI50 [17] | GI50 [18]
1 | CC1=C(C(=O)Nc2ccccc2)C(c2ccccc2Cl)C(C(=O)Nc2ccccc2)=C(C)N1 | 27.8 µM (inactive) | 30.5 µM (inactive) | 27.9 µM (inactive) | 21.2 µM (inactive) | < 0.01 µM (active) | 27.9 µM (inactive) | 38.6 µM (inactive) | 17.6 µM (inactive) | 24.3 µM (inactive) | 29.4 µM (inactive) | 20 µM (inactive) | 27.1 µM (inactive) | 37.1 µM (inactive) | 18.9 µM (inactive) | 28.1 µM (inactive) | 30.7 µM (inactive) | – | –
2 | N#CNCC(COCc1ccccc1)c1ccccc1 (centres undefined) | > 100 µM (inactive) | > 100 µM (inactive) | – | > 100 µM (inactive) | 61.4 µM (inactive) | > 100 µM (inactive) | 40.3 µM (inactive) | – | – | > 100 µM (inactive) | > 100 µM (inactive) | > 100 µM (inactive) | > 100 µM (inactive) | > 100 µM (inactive) | 41.9 µM (inactive) | 70.5 µM (inactive) | 99.1 µM (inactive) | –
3 | O=C1C(=O)N(c2ccc(Cl)c(Cl)c2)C(=O)C(=O)C1c1nc2ccccc2s1 | > 100 µM (inactive) | > 100 µM (inactive) | > 100 µM (inactive) | > 100 µM (inactive) | – | > 100 µM (inactive) | – | > 100 µM (inactive) | > 100 µM (inactive) | 56.5 µM (inactive) | > 100 µM (inactive) | > 100 µM (inactive) | > 100 µM (inactive) | > 100 µM (inactive) | > 100 µM (inactive) | > 100 µM (inactive) | > 100 µM (inactive) | –
4 | CCOC(=O)C(Sc1ccccc1)c1c(OC)cc(=O)oc1/C=[N+](/[O-])c1ccc(N(C)C)cc1 (centres undefined) | 52.7 µM (inactive) | > 10 µM (inactive) | 14.9 µM (inactive) | 23.9 µM (inactive) | – | 42.4 µM (inactive) | 6.81 µM (inactive) | 13.2 µM (inactive) | 46 µM (inactive) | 18.4 µM (inactive) | 24.4 µM (inactive) | 17.5 µM (inactive) | 75.7 µM (inactive) | 16.2 µM (inactive) | 31.3 µM (inactive) | 14.7 µM (inactive) | 16.2 µM (inactive) | 21.7 µM (inactive)
5 | COc1ccc(C(N)=O)c(OC)c1OCc1ccccc1 | > 100 µM (inactive) | > 100 µM (inactive) | – | > 100 µM (inactive) | > 100 µM (inactive) | > 100 µM (inactive) | > 100 µM (inactive) | > 100 µM (inactive) | > 100 µM (inactive) | > 100 µM (inactive) | > 100 µM (inactive) | > 100 µM (inactive) | > 100 µM (inactive) | > 100 µM (inactive) | > 100 µM (inactive) | > 100 µM (inactive) | 0.15 µM (active) | > 100 µM (inactive)
6 | Cc1nc2c(=O)n(C)c(=O)nc-2n(-c2ccc(Cl)cc2)c1C | > 100 µM (inactive) | 58.6 µM (inactive) | 43.1 µM (inactive) | > 100 µM (inactive) | 45.3 µM (inactive) | > 100 µM (inactive) | 41.7 µM (inactive) | > 100 µM (inactive) | > 100 µM (inactive) | > 100 µM (inactive) | > 100 µM (inactive) | > 100 µM (inactive) | > 100 µM (inactive) | > 100 µM (inactive) | > 100 µM (inactive) | > 100 µM (inactive) | – | > 100 µM (inactive)
7 | O=C(O)c1cc2c(ncc3c(=O)n(-c4ccccc4)[nH]c32)s1 | – | > 100 µM (inactive) | > 100 µM (inactive) | > 100 µM (inactive) | – | > 100 µM (inactive) | > 100 µM (inactive) | > 100 µM (inactive) | > 100 µM (inactive) | > 100 µM (inactive) | > 100 µM (inactive) | > 100 µM (inactive) | > 100 µM (inactive) | > 100 µM (inactive) | – | > 100 µM (inactive) | > 100 µM (inactive) | > 100 µM (inactive)
8 | COc1cccc(/C=C2\CCC(C)(CN(C)C)C2=O)c1 (centres undefined) | > 100 µM (inactive) | 98.9 µM (inactive) | 29.4 µM (inactive) | > 100 µM (inactive) | – | > 100 µM (inactive) | 43.7 µM (inactive) | > 100 µM (inactive) | > 100 µM (inactive) | > 100 µM (inactive) | > 100 µM (inactive) | > 100 µM (inactive) | – | > 100 µM (inactive) | > 100 µM (inactive) | 57 µM (inactive) | > 100 µM (inactive) | 92.7 µM (inactive)
9 | CCOc1ccccc1NC(=O)CC1Sc2ccccc2NC1=O (centres undefined) | – | 75.9 µM (inactive) | 95.7 µM (inactive) | > 100 µM (inactive) | 23.9 µM (inactive) | 45.5 µM (inactive) | 38 µM (inactive) | 37.5 µM (inactive) | > 100 µM (inactive) | 58.3 µM (inactive) | 62.7 µM (inactive) | > 100 µM (inactive) | > 100 µM (inactive) | > 100 µM (inactive) | 31.2 µM (inactive) | 49.2 µM (inactive) | > 100 µM (inactive) | 38.1 µM (inactive)
10 | CC1=NN2C(c3ccc([N+](=O)[O-])cc3)=CSC2=NC(C)(C)C1 | > 100 µM (inactive) | > 100 µM (inactive) | – | > 100 µM (inactive) | > 100 µM (inactive) | > 100 µM (inactive) | > 100 µM (inactive) | > 100 µM (inactive) | > 100 µM (inactive) | > 100 µM (inactive) | > 100 µM (inactive) | > 100 µM (inactive) | > 100 µM (inactive) | > 100 µM (inactive) | > 100 µM (inactive) | > 100 µM (inactive) | > 100 µM (inactive) | > 100 µM (inactive)
11 | CN1C(c2ccccc2)CC(=Nc2ccccc2)CC1c1ccccc1 (centres undefined) | – | – | 17.5 µM (inactive) | – | 2.61 µM (inactive) | 12.6 µM (inactive) | 13.2 µM (inactive) | 8.93 µM (inactive) | – | 6.97 µM (inactive) | – | 10.8 µM (inactive) | 2.95 µM (inactive) | – | 16.7 µM (inactive) | 10.8 µM (inactive) | 16.6 µM (inactive) | –
12 | CCC1=C(C)/C(=C/c2[nH]c(CBr)c(CC)c2C)N=C1CBr | – | > 10 µM (inactive) | 10.2 µM (inactive) | 12.2 µM (inactive) | 4.59 µM (inactive) | 18.5 µM (inactive) | 8.22 µM (inactive) | 16.1 µM (inactive) | > 10 µM (inactive) | 7.23 µM (inactive) | 18.7 µM (inactive) | 15.6 µM (inactive) | 19 µM (inactive) | 10 µM (inactive) | 29.6 µM (inactive) | 12.2 µM (inactive) | 12.1 µM (inactive) | 11.6 µM (inactive)
13 | CCOc1ccc(OCC)c([P+](c2ccccc2)(c2ccccc2)c2ccccc2)c1 | 0.785 µM (active) | 1.65 µM (inactive) | 1.29 µM (inactive) | 0.305 µM (active) | 0.114 µM (active) | 0.356 µM (active) | 0.213 µM (active) | 0.162 µM (active) | 0.407 µM (active) | 0.358 µM (active) | 0.685 µM (active) | 0.818 µM (active) | – | 0.294 µM (active) | 1.09 µM (active) | 0.44 µM (active) | 0.968 µM (active) | 0.178 µM (active)
14 | CN(C)CC1CCC/C1=N/OC(=O)c1ccccc1 (centres undefined) | > 100 µM (inactive) | > 100 µM (inactive) | > 100 µM (inactive) | > 100 µM (inactive) | – | > 100 µM (inactive) | > 100 µM (inactive) | > 100 µM (inactive) | > 100 µM (inactive) | > 100 µM (inactive) | > 100 µM (inactive) | > 100 µM (inactive) | > 100 µM (inactive) | > 100 µM (inactive) | > 100 µM (inactive) | > 100 µM (inactive) | > 100 µM (inactive) | –
15 | COC(=O)Cc1c(C2C(CC(=O)OC)c3ccccc3N2C2OC(CO)C(O)C(O)C2O)[nH]c2ccccc12 (centres undefined) | > 100 µM (inactive) | – | > 100 µM (inactive) | > 100 µM (inactive) | – | > 100 µM (inactive) | – | > 100 µM (inactive) | > 100 µM (inactive) | – | – | > 100 µM (inactive) | > 100 µM (inactive) | > 100 µM (inactive) | > 100 µM (inactive) | > 100 µM (inactive) | – | > 100 µM (inactive)
16 | CN(/N=N/c1[nH]cnc1C(N)=O)C1CCCCC1 | > 100 µM (inactive) | > 100 µM (inactive) | – | > 100 µM (inactive) | 29.5 µM (inactive) | > 100 µM (inactive) | – | 75.7 µM (inactive) | > 100 µM (inactive) | 36.9 µM (inactive) | > 100 µM (inactive) | > 100 µM (inactive) | 48.2 µM (inactive) | > 100 µM (inactive) | 34.6 µM (inactive) | 69 µM (inactive) | > 100 µM (inactive) | > 100 µM (inactive)
17 | C/C(=N\Nc1nnc(S)n1N)c1c(O)cc(C)oc1=O | > 100 µM (inactive) | > 100 µM (inactive) | > 100 µM (inactive) | > 100 µM (inactive) | > 100 µM (inactive) | – | > 100 µM (inactive) | – | – | > 100 µM (inactive) | > 100 µM (inactive) | > 100 µM (inactive) | > 100 µM (inactive) | > 100 µM (inactive) | > 100 µM (inactive) | > 100 µM (inactive) | – | > 100 µM (inactive)
18 | O=C(CC1(O)C(=O)Nc2c(Cl)cccc21)c1ccccc1 (centres undefined) | – | > 100 µM (inactive) | > 100 µM (inactive) | > 100 µM (inactive) | > 100 µM (inactive) | – | > 100 µM (inactive) | > 100 µM (inactive) | > 100 µM (inactive) | > 100 µM (inactive) | – | > 100 µM (inactive) | > 100 µM (inactive) | > 100 µM (inactive) | 85.9 µM (inactive) | 76.4 µM (inactive) | > 100 µM (inactive) | > 100 µM (inactive)
